The values that follow come from paper PMC11200976, “Pitavastatin Calcium Confers Fungicidal Properties to Fluconazole by Inhibiting Ubiquinone Biosynthesis and Generating Reactive Oxygen Species” (Antioxidants, 2024).

Where a name gives a salt, the structure may show the parent alone. Read-outs that look alike come from different tables or passages of the source.

For orientation: LD50 means the dose expected to kill half of the subjects tested. The low end stands for a more toxic substance, the high end for a less toxic substance.

Data set [1] can be described thus: Acute toxicity, Up-and-Down procedure (OECD 425), intraperitoneal. The class given is in vivo. The settings on record: C57BL/6, mouse, in vivo, ip, mice. On the procedure:
(§1) Following a previously described methodology, the intraperitoneal route was employed in adult mice. In brief, the primary test involved a sequential administration of doses at intervals of at least 48 h, with one mouse being dosed at a time. Initially, a dose below LD50 was administered intraperitoneally to a mouse. If the mouse survived, the subsequent mouse would receive 1.3 times the initial dose. Conversely, if the mouse died, the subsequent mouse would receive a dose decreased by 1.3 times the initial dose. Each mouse was monitored for 48 h before determining the subsequent mouse’s dosage and administration. The experiment was terminated upon five “survive or die” reversals within a consecutive set of six animals tested. Subsequently, the LD50 and its corresponding confidence interval were computed based on the conditions observed in all mice after the experiment.

The subject of data set [2] is C. albicans SC5314, SN152, cmp1-aid∆/cmp1-aid∆, and PADH1-UPC2 strains. Nature of the data set: FLC disk diffusion assays (25 μg FLC disk, 5 μM adjuvant). The class given is cell-based, Candida albicans. The conditions noted are these: for effect on FLC tolerance in FLC disk diffusion, all four strains: SC5314, SN152, cmp1-aid∆/cmp1-aid∆; for effect on FLC tolerance in FLC disk diffusion, all four strains / effect on FLC tolerance in FLC disk diffusion, PADH1-UPC2 strain: PADH1-UPC2; for synergistic lethal effects with FLC compared to GdA and CsA (disk diffusion): Figure S3. On the procedure:
Yeast cells were cultured overnight at a temperature of 30 °C, and the resulting cell suspension was diluted to a concentration of 1 × 10^7 cells/mL in phosphate-buffered saline (PBS). At a concentration of 5 μM, the drugs were individually added to YPD plates for disk assays using a 25 μg FLC disk (6 mm, Liofilchem, Roseto degli Abruzzi, Italy). The plates were then incubated at 30 °C for 48 h. Subsequently, the disk was transferred to a drug-free YPD plate, which was incubated at 30 °C for 24 h and photographed.

In data set [3] the test system is C. albicans. Nature of the data set: Broth microdilution assay of synergistic lethality with 4 μg/mL FLC (recovery on drug-free YPD). The class given is cell-based, Candida albicans. The conditions noted are these: for Synergistic lethal concentrations: concentration of the compound that is synergistically lethal with 4 μg/mL FLC, C. albicans, recovery on drug-free YPD; for synergistic lethal concentration (converts FLC from fungistatic to fungicidal): with 4 μg/mL FLC, tested 100 μM to 0.1953 μM, 30 °C, 48 h. (In general: Broth dilution looks for growth in wells or tubes with falling amounts of substance.)

Data set [4] has as its system C. albicans. The experiment in a line: Dose–matrix titration assays (synergy, with YPD recovery plates). The class given is cell-based, Candida albicans. The settings on record: for effect of azole combined with PIT: Figure 5B. On the procedure: The synergistic effects of drugs were conducted following the same procedure as the MIC assays. Specifically, 50 μL of drug A was distributed through two-fold serial dilution across seven plate columns. Subsequently, 50 μL of drug B was distributed in a two-fold serial dilution manner along seven rows of the plate. Furthermore, 100 μL of C. albicans cultures, adjusted to a density of 1 × 10^3 cells/mL, was dispensed into wells containing drugs and one control well devoid of any drugs. Before the 48 h OD600 readings, the plates were subjected to meticulous agitation to ensure the deposition of a representative 2 μL aliquot from each well onto newly prepared YPD recovery plates, thereby facilitating the evaluation of cellular recuperation following drug treatments. The recovery plates were subsequently incubated at a temperature of 30 °C for a duration ranging from 24 to 48 h, after which they were photographed. The experimental procedures were conducted in triplicate to ensure reliability and reproducibility.

For a further data set, the system named is mice. Nature of the data set: Acute toxicity, Up-and-Down procedure (OECD 425), intraperitoneal. Format: in vivo. On the procedure: as §1

The molecule `COC1=C2C[C@@H](C)C[C@H](OC)[C@H](O)[C@@H](C)/C=C(\C)[C@H](OC(N)=O)[C@@H](OC)/C=C\C=C(/C)C(=O)NC(=CC1=O)C2=O` [GdA, geldanamycin] displayed a median lethal dose (LD50) at 48 h in data set [1] of 19 mg/kg. Further, the “effect on FLC tolerance in FLC disk diffusion, all four strains” value (“effect on FLC tolerance … all four strains” for short) in data set [2] is recorded as “effectively eradicated the zones of FLC inhibition”.
On to `Cc1ccc(O)c([C@H](CCN(C(C)C)C(C)C)c2ccccc2)c1` [Tolterodine], for which the Synergistic lethal concentrations with C. albicans [3] turned out to be 100 µM.
As for `CC(C)OC(=O)CCC/C=C\C[C@@H]1[C@@H](/C=C/[C@@H](O)COc2cccc(C(F)(F)F)c2)[C@H](O)C[C@@H]1O` [Travoprost], the Synergistic lethal concentrations with C. albicans [3] amounted to 100 µM.
With `Cl.OC(CCN1CCCCC1)(c1ccccc1)C1CCCCC1` (stereo not drawn) [Trihexyphenidyl (hydrochloride)], the Synergistic lethal concentrations with C. albicans [3] came to 100 µM.
`Cc1onc(-c2ccccc2)c1-c1ccc(S(N)(=O)=O)cc1` [Valdecoxib]: the Synergistic lethal concentrations with C. albicans [3] stood at 100 µM.
On the same count and under the same terms, the result for `O=C(O)C(c1ccccc1)(c1ccccc1)c1ccccc1.OCc1cc([C@@H](O)CNCCCCCCOCCOCc2c(Cl)cccc2Cl)ccc1O` [Vilanterol (trifenatate] reads 100 µM.
Same read-out and setting: the result for `CC1=C(C)C(=O)C(CCCCCCCCCC[P+](c2ccccc2)(c2ccccc2)c2ccccc2)=CC1=O.[Br-]` [Visomitin] reads 50 µM.
With `C=C/C=C/C[C@@H](C)[C@@H](O)[C@H]1C(=O)N[C@@H](CC)C(=O)N(C)CC(=O)N(C)[C@@H](CC(C)C)C(=O)N[C@@H](C(C)C)C(=O)N(C)[C@@H](CC(C)C)C(=O)N[C@@H](C)C(=O)N[C@H](C)C(=O)N(C)[C@@H](CC(C)C)C(=O)N(C)[C@@H](CC(C)C)C(=O)N(C)[C@@H](C(C)C)C(=O)N1C` [Voclosporin], in the data set on C. albicans [3], the Synergistic lethal concentrations turned out to be 0.1953 µM.
The same measure, in the same setting: as for `Br.Cc1ccc(Sc2ccccc2N2CCNCC2)c(C)c1` [Vortioxetine (hydrobromide)], the figure is 100 µM; as for `CC(C)n1nccc1-c1ncccc1COc1cccc(O)c1C=O` [Voxelotor], 100 µM.
As to `COCc1c(C(C)C)nc(C(C)C)c(/C=C/[C@@H](O)C[C@@H](O)CC(=O)O)c1-c1ccc(F)cc1` [cerivastatin sodium], the “effect on FLC tolerance … all four strains” value in data set [2] is reported as “made FLC fungicidal”. Moreover, the “concentration that renders FLC fungicidal (no recovery on YPD solid medium)” value in the data set on C. albicans [4] (FLC ≤4 μg/mL, YPD, 30 °C, 48 h) was at most 3.125 µM. The “synergistic lethal concentration (converts FLC from fungistatic to fungicidal)” value with C. albicans [3] was at most 6.25 µM.
Turning to `N=C(NCCCCCCNC(=N)NC(=N)Nc1ccc(Cl)cc1)NC(=N)Nc1ccc(Cl)cc1.O=C(O)[C@H](O)[C@@H](O)[C@H](O)[C@H](O)CO.O=C(O)[C@H](O)[C@@H](O)[C@H](O)[C@H](O)CO` [chlorhexidine digluconate], the “effect on FLC tolerance in FLC disk diffusion, PADH1-UPC2 strain” value in data set [2] is “unsuccessful in reducing FLC tolerance”. In addition, the “concentration that renders FLC fungicidal (no recovery on YPD solid medium)” value in the data set on C. albicans [4] (FLC ≤4 μg/mL, YPD, 30 °C, 48 h) was at most 3.125 µM.
In data set [1], `C[C@@H]1CC[C@@]2(OC1)O[C@H]1C[C@H]3[C@@H]4CC=C5C[C@@H](O[C@@H]6O[C@H](CO)[C@@H](O[C@@H]7O[C@@H](C)[C@H](O)[C@@H](O)[C@H]7O)[C@H](O)[C@H]6O[C@@H]6O[C@@H](C)[C@H](O)[C@@H](O)[C@H]6O)CC[C@]5(C)[C@H]4CC[C@]3(C)[C@H]1[C@@H]2C` [dioscin] came in with an LD50 at 48 h of 32 mg/kg. The “synergistic lethal effects with FLC compared to GdA and CsA (disk diffusion)” value in data set [2] is listed as “weaker synergistic lethal effects”. In the data set with C. albicans [4] (FLC ≤4 μg/mL, YPD, 30 °C, 48 h), the “concentration that renders FLC fungicidal (no recovery on YPD solid medium)” value was at most 3.125 µM. The Synergistic lethal concentrations in the data set on C. albicans [3] came out at 6.25 µM.
Turning to `CCCCCCCCCCCC[N+](C)(C)CCOc1ccccc1` [domiphen bromide], the “synergistic lethal effects with FLC compared to GdA and CsA (disk diffusion)” value in data set [2] is reported as “weaker synergistic lethal effects”. Also, the “concentration that renders FLC fungicidal (no recovery on YPD solid medium)” value in the data set with C. albicans [4] (FLC ≤4 μg/mL, YPD, 30 °C, 48 h) is at most 3.125 µM.
`CC(C)n1c(/C=C/C(O)CC(O)CC(=O)O)c(-c2ccc(F)cc2)c2ccccc21` (stereo not drawn) [fluvastatin sodium, reference compound]: the “synergistic lethal concentration (converts FLC from fungistatic to fungicidal)” value in the data set on C. albicans [3] was at most 6.25 µM.
For `CCC(C)n1ncn(-c2ccc(N3CCN(c4ccc(OCC5COC(Cn6cncn6)(c6ccc(Cl)cc6Cl)O5)cc4)CC3)cc2)c1=O` (stereo not drawn) [itraconazole], the “effect of azole combined with PIT” value in the data set on C. albicans [4] is recorded as “synergistic lethal effects”.
Still for that read-out and setting: as for `CC(=O)N1CCN(c2ccc(OCC3COC(Cn4ccnc4)(c4ccc(Cl)cc4Cl)O3)cc2)CC1` (stereo not drawn) [ketoconazole], the entry is “synergistic lethal effects”; as for `Clc1ccc(COC(Cn2ccnc2)c2ccc(Cl)cc2Cl)c(Cl)c1` (stereo not drawn) [miconazole], “synergistic lethal effects”.
With `CCCCCCCCN=c1ccn(CCCCCCCCCCn2ccc(=NCCCCCCCC)cc2)cc1` [octenidine dihydrochloride], the “synergistic lethal effects with FLC compared to GdA and CsA (disk diffusion)” value in data set [2] was “weaker synergistic lethal effects”. In addition, the “concentration that renders FLC fungicidal (no recovery on YPD solid medium)” value in the data set on C. albicans [4] (FLC ≤4 μg/mL, YPD, 30 °C, 48 h) was at most 3.125 µM.
`CC[C@@H]1/C=C(\C)C[C@H](C)C[C@H](OC)[C@H]2O[C@@](O)(C(=O)C(=O)N3CCCC[C@H]3C(=O)O[C@H](/C(C)=C/[C@@H]3CC[C@H](Cl)[C@H](OC)C3)[C@H](C)[C@@H](O)CC1=O)[C@H](C)C[C@@H]2OC` [pimecrolimus]: the median lethal dose (LD50) at 48 h in data set [1] amounted to 42 mg/kg. In addition, the “effect on FLC tolerance … all four strains” value in data set [2] was “made FLC fungicidal”. Further, the “concentration that renders FLC fungicidal (no recovery on YPD solid medium)” value in the data set with C. albicans [4] (FLC ≤4 μg/mL, YPD, 30 °C, 48 h) is at most 3.125 µM. For the same molecule, in the data set with C. albicans [3], the Synergistic lethal concentrations was 0.1953 µM.
In the case of `Oc1cc(Cl)ccc1Oc1ccc(Cl)cc1Cl` [triclosan], the LD50 at 48 h in data set [1] came out at 62.6 mg/kg. For the same molecule, in data set [2], the “effect on FLC tolerance … all four strains” value was “made FLC fungicidal”. Further, the “concentration that renders FLC fungicidal (no recovery on YPD solid medium)” value in the data set on C. albicans [4] (FLC ≤4 μg/mL, YPD, 30 °C, 48 h) was at most 3.125 µM. Moreover, the Synergistic lethal concentrations in the data set with C. albicans [3] was found to be 0.3906 µM.
With `C[C@@H](c1ncncc1F)[C@](O)(Cn1cncn1)c1ccc(F)cc1F` [voriconazole], in the data set on C. albicans [4], the “effect of azole combined with PIT” value was “synergistic lethal effects”.
In the case of `Cc1ccc(Sc2ccccc2N2CCNCC2)c(C)c1` [vortioxetine], the 50% lethal dose (LD50) at 48 h in data set [1] came out at 48.3 mg/kg. Moreover, in data set [2], the “effect on FLC tolerance … all four strains” value is “made FLC fungicidal”. The “concentration that renders FLC fungicidal (no recovery on YPD solid medium)” value in the data set on C. albicans [4] (FLC ≤4 μg/mL, YPD, 30 °C, 48 h) is at most 3.125 µM. For the same molecule, the Synergistic lethal concentrations in the data set on C. albicans [3] is 6.25 µM.
Turning to bleomycin sulfate, the LD50 in the data set on mice is given as 21.57 mg/kg. For the same molecule, the “effect on FLC tolerance in FLC disk diffusion, cmp1-aid∆/cmp1-aid∆ strain” value in data set [2] (cmp1-aid∆/cmp1-aid∆) was “failed to clear the zone of FLC inhibition”. Further, in the data set on C. albicans [4], the “concentration that renders FLC fungicidal (no recovery on YPD solid medium)” value was at most 3.125 µM.
On to ivermectin, for which, in data set [2], the “synergistic lethal effects with FLC compared to GdA and CsA (disk diffusion)” value is “weaker synergistic lethal effects”. Further, the “concentration that renders FLC fungicidal (no recovery on YPD solid medium)” value in the data set on C. albicans [4] (FLC ≤4 μg/mL, YPD, 30 °C, 48 h) is at most 3.125 µM. Also, in the data set with C. albicans [3], the Synergistic lethal concentrations was 3.125 µM.
Turning to polymyxin B sulfate, the LD50 in the data set on mice is listed as 25 mg/kg. For the same molecule, the “effect on FLC tolerance in FLC disk diffusion, PADH1-UPC2 strain” value in data set [2] is given as “unsuccessful in reducing FLC tolerance”. Moreover, the “concentration that renders FLC fungicidal (no recovery on YPD solid medium)” value in the data set with C. albicans [4] (FLC ≤4 μg/mL, YPD, 30 °C, 48 h) was at most 3.125 µM. The Synergistic lethal concentrations in the data set on C. albicans [3] turned out to be 6.25 µM.
